Reference: paper PMC12136037, “Type II kinase inhibitors that target Parkinson’s disease–associated LRRK2” (Science Advances, 2025)
“And” between values parts separate entries of the source, which are not always exact repeats. Identical values can stand only once.

How the values were obtained:
[1] = molecular target: T1, LRRK2^RCKW (Homo sapiens, UniProt Q5S007); assay: Biochemical LRRK2 activity assay (PhosphoSense, AssayQuant SOX peptide AQT0615); settings: for IC50: LRRK2^RCKW kinase activity, in vitro; for normalized response (LRRK2 activity): normalized to 0% (no kinase) and 100% (no inhibitor) control, two singlicate columns per compound
T1 construct: LRRK2 R1327 to E2527; His6-Z-tag (TEV cleavable) (N, cleaved yes); host or cells: Sf9 insect cells (baculovirus)
T1 sequence (Q5S007 1327-2527): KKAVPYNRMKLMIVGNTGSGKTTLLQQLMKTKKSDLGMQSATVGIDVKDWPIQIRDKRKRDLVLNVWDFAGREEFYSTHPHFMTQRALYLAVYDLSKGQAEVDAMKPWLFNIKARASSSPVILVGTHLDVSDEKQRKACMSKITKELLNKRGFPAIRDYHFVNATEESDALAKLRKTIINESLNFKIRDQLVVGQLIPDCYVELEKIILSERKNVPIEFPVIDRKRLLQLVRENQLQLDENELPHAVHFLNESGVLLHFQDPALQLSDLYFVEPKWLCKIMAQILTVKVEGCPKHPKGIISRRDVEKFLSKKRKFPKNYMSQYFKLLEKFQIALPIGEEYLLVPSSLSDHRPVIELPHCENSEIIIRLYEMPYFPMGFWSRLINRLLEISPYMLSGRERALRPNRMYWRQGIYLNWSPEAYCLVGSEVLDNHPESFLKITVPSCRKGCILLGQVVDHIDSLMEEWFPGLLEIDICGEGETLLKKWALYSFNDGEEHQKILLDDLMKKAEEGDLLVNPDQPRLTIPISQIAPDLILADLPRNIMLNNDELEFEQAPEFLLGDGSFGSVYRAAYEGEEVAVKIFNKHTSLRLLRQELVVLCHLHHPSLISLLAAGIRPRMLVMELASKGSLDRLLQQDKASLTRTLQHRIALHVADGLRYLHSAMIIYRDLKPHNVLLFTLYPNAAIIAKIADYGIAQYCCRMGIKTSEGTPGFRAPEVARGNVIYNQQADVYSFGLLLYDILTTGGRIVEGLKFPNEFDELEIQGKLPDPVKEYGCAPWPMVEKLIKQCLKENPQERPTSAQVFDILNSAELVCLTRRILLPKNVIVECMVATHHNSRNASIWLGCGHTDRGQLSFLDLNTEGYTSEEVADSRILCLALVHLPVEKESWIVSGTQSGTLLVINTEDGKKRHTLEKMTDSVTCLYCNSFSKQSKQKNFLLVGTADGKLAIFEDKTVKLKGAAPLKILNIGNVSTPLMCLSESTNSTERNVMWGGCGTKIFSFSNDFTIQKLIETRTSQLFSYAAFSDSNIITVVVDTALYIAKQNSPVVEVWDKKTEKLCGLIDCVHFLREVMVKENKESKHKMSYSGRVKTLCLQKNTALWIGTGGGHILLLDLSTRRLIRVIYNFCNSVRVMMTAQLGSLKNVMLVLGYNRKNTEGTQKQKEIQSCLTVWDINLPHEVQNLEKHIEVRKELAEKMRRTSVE
In short: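 Controls lacked protein and compound (0%) or compound only (100%). IC50 derived by nonlinear regression of normalized response versus log[inhibitor].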

[2] = molecular target: T2, ~100 representative kinases (Homo sapiens, UniProt Q02750); assay: DSF 100 kinase selectivity screen; assay type: binding; settings: protein MAP2K1; average of three replicates;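 also: compound tested at 20 µM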
T2 construct: Recombinant protein kinase domains with a concentration of 2 μM
In short: (§1)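 Each kinase domain, at 2 μM, is mixed with 20 μM test compound and SYPRO Orange in Hepes (20 mM, pH 7.5) with 500 mM NaCl. Temperature is then raised at 3°C/min and fluorescence-monitored unfolding yields the melting temperature change, ΔTm in degrees Celsius.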

[3] = molecular target: T3, ~100 representative kinases (Homo sapiens, UniProt Q96GD4); assay: DSF 100 kinase selectivity screen; assay type: binding; settings: Protein AURKB; average of three replicates;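 also: compound tested at 20 µM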
T3 construct: Recombinant protein kinase domains with a concentration of 2 μM
In short: as §1

T2 sequence (Q02750 whole entry, the tested form may be a part): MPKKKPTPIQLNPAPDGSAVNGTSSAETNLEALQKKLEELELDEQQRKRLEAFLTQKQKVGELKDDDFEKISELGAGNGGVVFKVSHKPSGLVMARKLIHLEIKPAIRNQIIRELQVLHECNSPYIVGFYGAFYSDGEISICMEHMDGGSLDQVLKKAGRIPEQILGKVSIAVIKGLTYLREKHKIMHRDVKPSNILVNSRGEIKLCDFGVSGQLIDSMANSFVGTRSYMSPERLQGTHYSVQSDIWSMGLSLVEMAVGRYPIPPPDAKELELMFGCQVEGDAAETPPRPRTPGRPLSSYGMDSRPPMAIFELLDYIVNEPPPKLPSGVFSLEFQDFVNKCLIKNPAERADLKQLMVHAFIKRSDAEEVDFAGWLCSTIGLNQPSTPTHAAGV
T3 sequence (Q96GD4 whole entry, the tested form may be a part): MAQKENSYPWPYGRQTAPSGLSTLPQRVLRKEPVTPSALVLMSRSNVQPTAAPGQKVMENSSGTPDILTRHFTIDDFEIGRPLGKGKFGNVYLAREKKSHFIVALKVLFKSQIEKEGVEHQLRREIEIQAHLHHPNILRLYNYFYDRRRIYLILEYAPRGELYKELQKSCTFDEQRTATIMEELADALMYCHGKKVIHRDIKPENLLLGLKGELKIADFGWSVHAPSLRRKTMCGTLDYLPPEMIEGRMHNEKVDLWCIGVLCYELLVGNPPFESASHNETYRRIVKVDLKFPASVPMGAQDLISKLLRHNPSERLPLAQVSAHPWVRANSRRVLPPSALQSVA

Row | Structure (SMILES) | IC50 [1] | normalized response (LRRK2 activity) ([1]; log[inhibitor(mol)] -4.82391) | normalized response (LRRK2 activity) ([1]; log[inhibitor(mol)] -5.12494) | normalized response (LRRK2 activity) ([1]; log[inhibitor(mol)] -5.60206) | normalized response (LRRK2 activity) ([1]; log[inhibitor(mol)] -6.30103) | normalized response (LRRK2 activity) ([1]; log[inhibitor(mol)] -6.90309) | normalized response (LRRK2 activity) ([1]; log[inhibitor(mol)] -7.30103) | normalized response (LRRK2 activity) ([1]; log[inhibitor(mol)] -7.60206) | normalized response (LRRK2 activity) ([1]; log[inhibitor(mol)] -8.09691) | normalized response (LRRK2 activity) ([1]; log[inhibitor(mol)] -8.61979) | normalized response (LRRK2 activity) ([1]; log[inhibitor(mol)] -9.09691) | normalized response (LRRK2 activity) ([1]; log[inhibitor(mol)] -9.39794) | dTm [2] | dTm [3]
1 | Cc1cc(NC(=O)C2(C(=O)Nc3ccc(F)cc3)CC2)cc(-c2c[nH]c3ncnc(N4CCOCC4)c23)c1 [Compound 6] | 2150 ± 76 nM | 17.1176% and 19.6941% | 21.5574% and 22.3836% | 47.7852% and 45.6806% | 71.6605% and 77.9071% | 94.0943% and 97.1643% | 97.7557% and 95.1358% | 95.6902% and 98.0188% | 96.4251% and 96.973% | 102.476% and 68.784% | 101.485% and 101.404% | 101.487% and 73.6695% | 1.10 K | 4.75 K
2 | O=C(Nc1cccc(-c2c[nH]c3ncnc(N4CCOCC4)c23)c1)C1(C(=O)Nc2cccc3c2CCC3)CC1 [Compound 11] | 989 ± 32 nM | 10.5992% and 8.534% | 11.3407% and 2.1893% | 26.743% and 30.013% | 46.8199% and 60.7415% | 90.6286% and 91.37% | 100.861% and 98.8124% | 104.989% and 102.561% | 99.7669% and 103.043% | 100.861% and 99.0776% | 103.172% and 100.678% | 101.258% and 104.313% | 2.12 K | -0.43 K
3 | O=C(Nc1cccc(-c2c[nH]c3ncnc(N4CCOCC4)c23)c1)C1(C(=O)Nc2ccc(F)c(Br)c2)CC1 [Compound 19] | 264 ± 19 nM | 3.161% and 1.4% | 3.805% and 3.935% | 9.506% and 13.5388% | 29.4238% and 33.7614% | 67.8273% and 68.8623% | 84.3755% and 91.2634% | 88.4282% and 94.2182% | 94.3856% and 94.7313% | 99.7343% and 99.0059% | 100.123% and 100.393% | 97.0165% and 71.9323% | 2.40 K | 5.64 K
4 | CC(C)(C)c1cccc(NC(=O)C2(C(=O)Nc3cccc(-c4c[nH]c5ncnc(N6CCOCC6)c45)c3)CC2)c1 [Compound 22] | 886 ± 63 nM | 10.3797% and 6.914% | 10.6927% and 10.684% | 26.6669% and 27.2452% | 59.6653% and 62.0504% | 86.7302% and 90.6112% | 94.29% and 100.35% | 102.254% and 104.876% | 100.313% and 102.032% | 105% and 108.964% | 105.539% and 102.73% | 104.285% and 104.996% | 2.23 K | 1.96 K
5 | O=C(Nc1cccc(-c2c[nH]c3ncnc(N4CCOCC4)c23)c1)C1(C(=O)Nc2cc(Br)c(F)cc2F)CC1 [Compound 25] | 818 ± 56 nM | 4.179% and 4.042% | 6.886% and 2.089% | 16.9372% and 25.3493% | 61.5503% and 64.2768% | 87.889% and 62.9679% | 95.1314% and 96.4468% | 95.9663% and 100.454% | 95.3684% and 96.0989% | 98.0471% and 98.2841% | 97.884% and 98.6428% | 99.7517% and 70.9452% | 2.16 K | -2.86 K
6 | O=C(Nc1cccc(-c2c[nH]c3ncnc(N4CCOCC4)c23)c1)C1(C(=O)Nc2ccc(F)c(Br)c2F)CC1 [Compound 26] | 134 ± 5 nM | 1.939% and 8.5359% | 9.123% and 11.3015% | 44.4326% and 42.5431% | 13.6454% and 21.2987% | 53.1512% and 54.1949% | 78.8268% and 70.6625% | 83.0818% and 80.8923% | 91.3569% and 90.9395% | 93.5464% and 85.6887% | 97.2382% and 103.098% | 97.1774% and 94.1421% | 2.67 K | 0.97 K
7 | O=C(Nc1cc(F)cc(Br)c1)C1(C(=O)Nc2cccc(-c3c[nH]c4ncnc(N5CCOCC5)c34)c2)CC1 [Compound 27] | 1960 ± 652 nM | 9.9531% and 0.1682% | 15.329% and 15.4402% | 51.4182% and 54.957% | 74.2368% and 85.6074% | 93.8115% and 94.6865% | 93.6955% and 101.281% | 91.0994% and 95.9483% | 92.7092% and 88.0778% | 94.7784% and 93.0186% | 131.133% and 93.2265% | 94.4883% and 98.7958% | 2.13 K | 2.17 K
8 | Cc1ccc(-n2nc(C(C)(C)C)cc2NC(=O)Nc2cccc(-c3c[nH]c4ncnc(N5CCOCC5)c34)c2)cc1 [Compound 29] | 20.2 ± 0.01 nM | – | -15.0137% and -16.6919% | -14.1253% and -13.1052% | -11.8493% and -10.5551% | -5.6961% and -4.1002% | 9.533% and 17.3374% | 45.8935% and 45.9868% | 84.3047% and 80.6906% | 106.121% and 110.711% | 109.51% and 103.466% | 104.536% and 110.261% | 2.87 K | 3.15 K
